Results published in patent publication US20250064729A1, “METHODS AND FORMULATIONS FOR IMPROVING THE PHARMACOKINETIC PROPERTIES OF NUTRACEUTICAL COMPOUNDS” (UNIVERSITY OF SOUTH CAROLINA, priority 2023, published 2025).
In brackets after ≈: the same amount, converted by molar mass.

Experiment: Solubility assessment under saturation conditions in simulated gastrointestinal media
Details: thermodynamic from solid
Protocol: Biological media (Biorelevant.com, London, UK) were prepared according to the manufacturer's instructions. […] The resulting suspensions were left for 1 h at room temperature under constant magnetic stirring. A 200-μl aliquot of each suspension was taken into an Eppendorf tube and centrifuged at top speed, and 100 μl supernatant was taken for UV spectrometer detection at 434 nm for emodin and 371 nm for quercetin. The concentration was calculated based on standard curves established using pure emodin or quercetin completely dissolved in methanol.

Row | Compound | solubility at 1 h (pH 1.6, fassgf or other biorelevant) | solubility at 1 h (pH 6.5, fassif) | solubility at 1 h (FaSSGF (fasted-state simulated gastric fluid), pH 1.6, fassgf or other biorelevant) | solubility at 1 h (FaSSIF (fasted-state simulated intestinal fluid), pH 6.5, fassif) | solubility at 1 h (FeSSIF (fed-state simulated intestinal fluid), pH 5, fessif)
1 | Cc1cc(O)c2c(c1)C(=O)c1cc(O)cc(O)c1C2=O [Emodin, 1,3,8-trihydroxy-6-methylanthraquinone] | 0.0071 mg/mL (≈ 26.3 µM) | 0.0272 mg/mL (≈ 101 µM) |  |  | 
2 | O=c1c(O)c(-c2ccc(O)c(O)c2)oc2cc(O)cc(O)c12 [Quercetin, 3,3′,4′,5,7-pentahydroxylflavone] |  |  | 0.0208 mg/mL (≈ 68.8 µM) | 0.0434 mg/mL (≈ 144 µM) | 0.145 mg/mL (≈ 481 µM)
